{
  "source": "paper PMC5469811",
  "about": "“Identification of GXXXXG motif in Chrysophsin-1 and its implication in the design of analogs with cell-selective antimicrobial and anti-endotoxin activities” (Scientific Reports, 2017)",
  "key": {"Cryptococcus neoformans": {"system": "Cryptococcus neoformans", "test": "microbe, parasite or virus in culture", "type": "cell-based", "conditions": "72 h; read-out: Minimum inhibitory concentration (MIC)", "experimental": "(§1) The anti- fungal activity of peptides was performed according to the standard micro broth dilution technique as per NCCLS guidelines. These plates were incubated in a moist chamber at 35 °C, and an absorbance at 492 nm was recorded on a VersaMax microplate reader after 48 h for C. albicans ATCC 10231 and C. parapsilosis ATCC 22019 and 72 h for C. neoformans."}, "[1]": {"system": "Candida albicans (ATCC 10231)", "test": "microbe, parasite or virus in culture", "type": "cell-based", "conditions": "ATCC 10231, 48 h; read-out: Minimum inhibitory concentration (MIC)", "experimental": "as §1"}, "[2]": {"system": "Candida parapsilosis (ATCC 22019)", "test": "microbe, parasite or virus in culture", "type": "cell-based", "conditions": "ATCC 22019, 48 h; read-out: Minimum inhibitory concentration (MIC)", "experimental": "as §1"}, "E. coli (ATCC 25922)": {"system": "E. coli (ATCC 25922)", "type": "cell-based, Escherichia coli", "conditions": "ATCC 25922, 1 h", "summary_of_the_method": "(§2)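 E. coli ATCC 25922 at 10^6 CFU/ml in MH broth with physiological divalent and monovalent salts was exposed to serial peptide dilutions, 18 h shaking at 37 °C, and MIC read. Variants: peptides preheated 1 h at 4, 60 or 90 °C, or assay diluent with 10% fetal bovine serum, 0.4% BSA, 0.02% acetic acid.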"}, "E. coli ATCC 25922 [3]": {"system": "E. coli ATCC 25922", "type": "cell-based, Escherichia coli", "conditions": "ATCC 25922, 18 h", "summary_of_the_method": "as §2"}, "[4]": {"system": "Pseudomonas aeruginosa (ATCC BAA-427)", "test": "microbe, parasite or virus in culture", "type": "cell-based", "conditions": "ATCC BAA-427; read-out: Minimum inhibitory concentration (MIC)", "summary_of_the_method": "(§3)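 Values are averages of three independent MIC determinations. Each came from a two-fold serial dilution series of compound against every strain.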"}, "[5]": {"system": "Escherichia coli (ATCC 25922)", "test": "microbe, parasite or virus in culture", "type": "cell-based", "conditions": "ATCC 25922; read-out: Minimum inhibitory concentration (MIC)", "summary_of_the_method": "as §3"}, "[6]": {"system": "Staphylococcus aureus (ATCC 29213)", "test": "microbe, parasite or virus in culture", "type": "cell-based", "conditions": "ATCC 29213; read-out: Minimum inhibitory concentration (MIC)", "summary_of_the_method": "as §3"}, "[7]": {"system": "Staphylococcus aureus (ATCC 700698 MRSA)", "test": "microbe, parasite or virus in culture", "type": "cell-based", "conditions": "ATCC 700698; read-out: Minimum inhibitory concentration (MIC)", "summary_of_the_method": "as §3"}, "[8]": {"system": "Escherichia coli (ATCC 9637)", "test": "microbe, parasite or virus in culture", "type": "cell-based", "conditions": "ATCC 9637; read-out: Minimum inhibitory concentration (MIC)", "summary_of_the_method": "as §3"}, "[9]": {"system": "Bacillus subtilis (ATCC 6633)", "test": "microbe, parasite or virus in culture", "type": "cell-based", "conditions": "ATCC 6633; read-out: Minimum inhibitory concentration (MIC)", "summary_of_the_method": "as §3"}, "[10]": {"system": "Staphylococcus aureus (ATCC 25923)", "test": "microbe, parasite or virus in culture", "type": "cell-based", "conditions": "ATCC 25923; read-out: Minimum inhibitory concentration (MIC)", "summary_of_the_method": "as §3"}, "[11]": {"system": "Staphylococcus aureus (ATCC 33592) Methicillin resistant Genatmicin resistant", "test": "microbe, parasite or virus in culture", "type": "cell-based", "conditions": "ATCC 33592; read-out: Minimum inhibitory concentration (MIC)", "summary_of_the_method": "as §3"}, "[12]": {"system": "Staphylococcus aureus (ATCC 700699 MRSA)", "test": "microbe, parasite or virus in culture", "type": "cell-based", "conditions": "ATCC 700699; read-out: Minimum inhibitory concentration (MIC)", "summary_of_the_method": "as §3"}, "[13]": {"system": "Klebsiella pneumoniae (ATCC 27736)", "test": "microbe, parasite or virus in culture", "type": "cell-based", "conditions": "ATCC 27736; read-out: Minimum inhibitory concentration (MIC)", "summary_of_the_method": "as §3"}, "E. coli ATCC 25922 [14]": {"system": "E. coli ATCC 25922", "test": "Synergy with conventional antibiotics, checkerboard titration", "type": "cell-based, Escherichia coli", "summary_of_the_method": "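Checkerboard of 2-fold serial dilutions of peptide and antibiotic combined with log-phase bacteria, incubated 24 h at 37 °C. FIC index computed from combination versus single-agent MICs: <0.5 synergy, 0.5–1.0 additive, 1.0–4.0 indifferent, >4.0 antagonism.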"}, "BALB/c mice": {"system": "BALB/c mice", "test": "In vivo toxicity of peptide alone", "set-up": "species or system mouse", "conditions": "peptide alone 5 and 10 mgKg−1 i.p., seven days, five animals", "experimental": "(§4) For survival assay, mice were challenged intraperitoneally with LPS at a lethal dose of 15 mgKg^−1 E. coli 0111:B4[5]. Control mice were injected with an equal volume of PBS. G13P-Chr-1 at a single dose of 5 mgKg^−1 was injected in the mice groups that were already administered with 15 mgKg^−1 of LPS. Each group contained five mice. The mortality of mice was monitored up to 7 days and weight change was monitored every day. The peptide G13P-Chr-1 only was also injected in two groups of mice at 5 mgKg^−1 and 10 mgKg^−1 to check any mortality in mice by peptide only treatment."}, "[15]": {"system": "BALB/c mice challenged with lethal dose of LPS", "test": "Anti-LPS survival assay", "type": "in vivo, mouse", "conditions": "LPS 15 mgKg−1 i.p. plus peptide single dose 5 mgKg−1, 7 days, five mice per group, LPS-only mice all died within 24 h", "experimental": "as §4"}, "[16]": {"system": "Sporothrix schenckii (Patient isolates)", "test": "microbe, parasite or virus in culture", "type": "cell-based", "conditions": "48 h; read-out: Minimum inhibitory concentration (MIC)"}, "S. aureus (ATCC 25923)": {"system": "S. aureus (ATCC 25923)", "type": "cell-based, Staphylococcus aureus", "conditions": "ATCC 25923, 1 h"}},
  "note": "Residues, ends and D or L forms follow the SMILES beside them.",
  "data": [
    {"smiles": "CC[C@H](C)[C@H](NC(=O)[C@H](C)NC(=O)[C@H](CCCCN)NC(=O)[C@@H]1CCCN1C(=O)[C@H](C)NC(=O)[C@H](Cc1c[nH]cn1)NC(=O)[C@@H](NC(=O)[C@H](C)NC(=O)CNC(=O)[C@H](CCCCN)NC(=O)[C@@H](NC(=O)[C@H](CC(C)C)NC(=O)[C@H](Cc1c[nH]c2ccccc12)NC(=O)CNC(=O)[C@H](Cc1ccccc1)NC(=O)[C@@H](N)Cc1ccccc1)[C@@H](C)CC)[C@@H](C)CC)C(=O)N[C@@H](Cc1c[nH]cn1)C(=O)NCC(=O)N[C@@H](CC(C)C)C(=O)N[C@H](C(=O)N[C@@H](Cc1c[nH]cn1)C(=O)N[C@@H](CCCNC(=N)N)C(=O)N[C@@H](CCCNC(=N)N)C(=O)N[C@@H](CCCNC(=N)N)C(=O)N[C@@H](Cc1c[nH]cn1)C(N)=O)[C@@H](C)CC", "note": "[Peptide G13P-Chr-1] (H-FFGWLIKGAIHAPKAIHGLIHRRRH-NH2)", "values": [
      {"measurement": "MIC", "setting": "Cryptococcus neoformans", "result": 13.6, "unit": "µM"},
      {"measurement": "MIC", "setting": "[1]", "result": 13.6, "unit": "µM"},
      {"measurement": "MIC", "setting": "[2]", "result": 6.8, "unit": "µM"},
      {"measurement": "Antibacterial activity (MIC) after incubating peptide at 4 °C", "setting": "E. coli (ATCC 25922)", "result": 5, "unit": "µM"},
      {"measurement": "Antibacterial activity (MIC) after incubating peptide at 60 °C", "setting": "E. coli (ATCC 25922)", "result": 8.6, "unit": "µM"},
      {"measurement": "Antibacterial activity (MIC) after incubating peptide at 90 °C", "setting": "E. coli (ATCC 25922)", "result": 12.3, "unit": "µM"},
      {"measurement": "Antibacterial activity (MIC) in the presence of 10% FBS", "setting": "E. coli ATCC 25922 [3]", "result": 8.6, "unit": "µM"},
      {"measurement": "Antibacterial activity (MIC) in the presence of FeCl3", "setting": "E. coli ATCC 25922 [3]", "result": 4.1, "unit": "µM"},
      {"measurement": "Antibacterial activity (MIC) in the presence of KCl", "setting": "E. coli ATCC 25922 [3]", "result": 4.3, "unit": "µM"},
      {"measurement": "Antibacterial activity (MIC) in the presence of MgCl2", "setting": "E. coli ATCC 25922 [3]", "result": 4.3, "unit": "µM"},
      {"measurement": "Antibacterial activity (MIC) in the presence of NH4Cl", "setting": "E. coli ATCC 25922 [3]", "result": 2.0, "unit": "µM"},
      {"measurement": "Antibacterial activity (MIC) in the presence of NaCl", "setting": "E. coli ATCC 25922 [3]", "result": 8.6, "unit": "µM"},
      {"measurement": "MIC", "setting": "[4]", "result": 6.8, "unit": "µM"},
      {"measurement": "MIC", "setting": "[5]", "result": 5, "unit": "µM"},
      {"measurement": "MIC", "setting": "[6]", "result": 1.6, "unit": "µM"},
      {"measurement": "MIC", "setting": "[7]", "result": 3, "unit": "µM"},
      {"measurement": "MIC", "setting": "[8]", "result": 3, "unit": "µM"},
      {"measurement": "MIC", "setting": "[9]", "result": 3, "unit": "µM"},
      {"measurement": "MIC", "setting": "[10]", "result": 3, "unit": "µM"},
      {"measurement": "MIC", "setting": "[11]", "result": 1.6, "unit": "µM"},
      {"measurement": "MIC", "setting": "[12]", "result": 1.6, "unit": "µM"},
      {"measurement": "MIC", "setting": "[13]", "result": 6.8, "unit": "µM"},
      {"measurement": "interaction of peptide with chloramphenicol (by FICI)", "setting": "E. coli ATCC 25922 [14]", "result": "synergy (FICI < 0.5 is considered to indicate synergy)"},
      {"measurement": "survival of mice (in vivo cytotoxicity)", "setting": "BALB/c mice", "result": 100, "unit": "%"},
      {"measurement": "survival of mice", "setting": "[15]", "result": 40, "unit": "%"},
      {"measurement": "MIC", "setting": "[16]", "result": 27.2, "unit": "µM"},
      {"measurement": "Antibacterial activity (MIC) after incubating peptide at 4 °C", "setting": "S. aureus (ATCC 25923)", "result": 3, "unit": "µM"},
      {"measurement": "Antibacterial activity (MIC) after incubating peptide at 60 °C", "setting": "S. aureus (ATCC 25923)", "result": 13, "unit": "µM"},
      {"measurement": "Antibacterial activity (MIC) after incubating peptide at 90 °C", "setting": "S. aureus (ATCC 25923)", "result": 17.3, "unit": "µM"}
    ]}
  ]
}
